This note sets out measurements from patent publication EP1974751A1, “Formulations for non-steroidal anti-inflammatory drugs” (The Jordanian Pharmaceutical Manufacturing Co., priority 2007, dated 2008).

Molecules are shown by their SMILES.

Take `OC[C@H]1O[C@@H]2O[C@H]3[C@H](O)[C@@H](O)[C@@H](O[C@H]4[C@H](O)[C@@H](O)[C@@H](O[C@H]5[C@H](O)[C@@H](O)[C@@H](O[C@H]6[C@H](O)[C@@H](O)[C@@H](O[C@H]7[C@H](O)[C@@H](O)[C@@H](O[C@H]8[C@H](O)[C@@H](O)[C@@H](O[C@H]1[C@H](O)[C@H]2O)O[C@@H]8CO)O[C@@H]7CO)O[C@@H]6CO)O[C@@H]5CO)O[C@@H]4CO)O[C@@H]3CO` [β-cyclodextrin]: where the note is “distilled water”, the “optimal solubility of β-cyclodextrin” value turned out to be 20 mM. Under “water”, this compound returned a β-cyclodextrin solubility of 230 mM.
